# Values of other authors, collected in paper PMC10320121 (Nucleic Acids Research, 2023).
smiles,measurement,value
"N#Cc1ccc2[nH]cc(CCCCN3CCN(c4ccc5oc(C(N)=O)cc5c4)CC3)c2c1 [Vilazodone, vilazodone]",oral bioavailability (F),47.45%
